Laboratory results taken from patent US5980914A (priority 1997, dated 1999).
“Also recorded” adds a separate entry of the source.

How the values were obtained:
[1] = system: vitamin B12 ([^57 Co]-cyanocobalamine) metabolism; assay: Influence of clioquinol on vitamin B12 in vivo: [57Co]-cyanocobalamine radioactivity in dissected tissues; parameters: species or system mice
Description: After three days, all of the mice were injected with [^57 Co]-cyanocobalamine. After two days, the animals were sacrificed, and the brain, liver and kidney were dissected and counted in a gamma-counter as thousand cpm/g tissue (wet weight)±SEM. The radioactivities in each of the groups are stated in Table 1 below: […]

[2] = cited from earlier work
[3] = Solubility in water / aqueous solutions; format: physicochemical; details: water / aqueous solutions for NMR testing
Description: (§1) The mixture was analyzed by ^1 H NMR.
(§2) Three different solutions were prepared and their ^1 H NMR spectra were recorded in a DRX 400 MHz spectrophotometer at 20° C. Solution a) contained free vitamin B12 (hydroxycobalamin) in a concentration of 2.6 mM.

[4] = monkeys, microautoradiographic techniques; terminal axodendritic boutons of the mossy fibres; cited from earlier work
[5] = mass spectrophotometry; cited from earlier work
[6] = mass spectrophotometry; cited from earlier work; remark: listed apart in the source
[7] = system: neurotoxic injury; details: in vivo; cited from earlier work
[8] = mass spectrophotometry; cited from earlier work; remark: listed apart in the source
[9] = unconjugated clioquinol, injected intravenously; crosses the blood-brain-barrier; cited from earlier work
[10] = mass spectrophotometry; cited from earlier work; remark: listed apart in the source
[11] = system: Heliocobacter pylori; details: in vivo; cited from earlier work
[12] = mass spectrophotometry; cited from earlier work; remark: listed apart in the source
[13] = in vivo; cited from earlier work
[14] = 1H NMR interaction of vitamin B12 with clioquinol glucuronide; format: binding
Description: FIG. 1 depicts the NMR spectra of three solutions. Solution a contained vitamin B12 (hydroxycobalamin), at a concentration of 2.6 mM.
as §1, §2

Row | Structure (SMILES) | radioactivity, Brain ([1]; brain, clioquinol 50 mg/kg/day, [57Co]-cyanocobalamine after three days, sacrificed after two days, ±SEM, control 9.4 ± 0.9) | amount of vitamin B12 trapped in the kidneys, in words ([1]; kidney, versus control) | radioactivity, Kidney ([1]; kidney, clioquinol 50 mg/kg/day, [57Co]-cyanocobalamine after three days, sacrificed after two days, ±SEM, control 895 ± 207) | radioactivity, Liver ([1]; liver, clioquinol 50 mg/kg/day, [57Co]-cyanocobalamine after three days, sacrificed after two days, ±SEM, control 97 ± 8) | concentration in areas of the brain such as the hippocampus, in words [2] | solubility in water [3] | zinc chelates in the hippocampus [4] | coordination number for Co(II) [5] | coordination number for Zn(II) [6] | effect in the treatment of neurotoxic injury [7] | coordination number for Fe(III) [8] | penetration into the nervous system [9] | coordination number for Cu(II) [10] | effect in the treatment of Heliocobacter pylori [11] | coordination number for Ni(II) [12] | excretion [13] | shift of resonances in the mixture ([14]; aromatic region, benzimidazole moiety (vitamin B12), quinoline moiety (clioquinol glucuronide)) | interaction between clioquinol glucuronide and vitamin B12 ([14]; buffered water pH 6.5, 20° C, 2.6 mM vitamin B12 + 10 mM clioquinol glucuronide)
1 | Oc1c(I)cc(Cl)c2cccnc12 [Clioquinol, 5-chloro-7-iodo-8 hydroxyquinoline] | 8.4 ± 1.5 thousand cpm/g tissue (wet wei | decreased in the kidney; also recorded: A reduction in the amount of vitamin B12 trapped in the kidneys | 252 ± 61 thousand cpm/g tissue (wet wei | 85 ± 21 thousand cpm/g tissue (wet wei | high | cannot be dissolved in aqueous solutions | form zinc chelates in the hippocampus | 2 | 2 | effective | 3 | extremely rapid penetration into the nervous system | 2 | effective | 2 | excreted through the kidneys as glucuronide or sulfate derivatives; also recorded: excreted through the kidneys as glucuronide derivatives |  | 
2 | COC(=O)[C@H]1OC(Oc2c(I)cc(Cl)c3cccnc23)[C@H](OC(C)=O)[C@@H](OC(C)=O)[C@@H]1OC(C)=O (stereo partly shown) [clioquinol glucuronide, methyl(5-chloro-7-iodo-quinolyl-2',3',4'-tri-O-acetyl-glycopyranosid)uronate] |  |  |  |  |  | soluble in water |  |  |  |  |  |  |  |  |  |  | the same is observed for two resonances of the clioquinol glucuronide | hydrophobic interaction between clioquinol glucuronide and vitamin B12; also recorded: vitamin B12 binds to clioquinol glucuronide
